Consider one substance from patent publication US20130295115A1, “COMPOSITIONS AND METHODS FOR TREATING […]” (priority 2010, published 2013).

For the experiment, the system named is VSV. The experiment is classed as cell-based, Vesicular Stomatitis Virus.

Turning to Ammonium Iron(III) Citrate, the VSV binding entry is “no affect”.
